# Source: patent US20090137499A1, “BENZYLPHENYL GLUCOPYRANOSIDE DERIVATIVE” (priority 2006, published 2009)
# Target: T1, human SGLT2 (Homo sapiens, UniProt P31639)
# T1 construct: expressed in transfected cells
# T1 sequence (P31639 1-672): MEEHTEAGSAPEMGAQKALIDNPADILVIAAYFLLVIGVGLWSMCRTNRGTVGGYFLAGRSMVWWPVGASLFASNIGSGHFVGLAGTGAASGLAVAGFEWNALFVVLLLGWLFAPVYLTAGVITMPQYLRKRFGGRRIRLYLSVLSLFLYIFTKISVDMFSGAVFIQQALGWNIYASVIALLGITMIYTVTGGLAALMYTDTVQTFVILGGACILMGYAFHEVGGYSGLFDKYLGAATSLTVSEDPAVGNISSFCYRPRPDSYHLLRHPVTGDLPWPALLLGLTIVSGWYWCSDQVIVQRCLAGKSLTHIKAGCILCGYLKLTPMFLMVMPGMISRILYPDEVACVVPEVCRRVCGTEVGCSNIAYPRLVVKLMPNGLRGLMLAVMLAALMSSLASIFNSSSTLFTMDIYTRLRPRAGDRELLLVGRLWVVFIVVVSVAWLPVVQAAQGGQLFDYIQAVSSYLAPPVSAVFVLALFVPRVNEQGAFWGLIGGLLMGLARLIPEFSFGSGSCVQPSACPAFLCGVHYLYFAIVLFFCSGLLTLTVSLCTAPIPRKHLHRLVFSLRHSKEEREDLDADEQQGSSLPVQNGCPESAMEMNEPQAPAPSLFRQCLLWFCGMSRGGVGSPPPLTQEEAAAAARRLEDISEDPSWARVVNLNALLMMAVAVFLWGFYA
# Assay: Determination of SGLT2 inhibiting activity using human SGLT2 expressing cell ([14C]-α-methyl-D-glucopyranoside uptake)
# Assay type: cell-based
# Settings: HEK-SGLT2 cells, 1 mM [14C]-α-methyl-D-glucopyranoside, 37° C., 30 min
# Method: Determination of SGLT2 Inhibiting Activity Using Human SGLT2 Expressing Cell
# 1) Preparation of Vector Expressing Human SGLT2 cDNA in Animal Cell
# Amplification was performed by PCR using human SGLT2 cDNA clone (Origene: Clone Number, TC303267; GenBank accession number, NM 003041) as a template. The sense oligonucleotide primer for PCR was 5′-[…]-3′ (Primer 3: SEQ ID NO: 3 in the sequence listing),
# and the antisense oligonucleotide primer was 5′-[…]-3′ (Primer 4: SEQ ID NO: 4 in the sequence listing). The PCR product was subjected to agarose electrophoresis, then a target DNA fragment was recovered from a single band corresponding to 2037 bases, digested with restriction enzymes HindIII and XhoI, and introduced into the HindIII/XhoI site of vector pCMV-Script (Stratagene) to obtain SGLT2 expressing plasmid pCMV-SGLT2. A HindIII/XhoI fragment was excised from pCMV-SGLT2 and introduced into the BamHI/XhoI site of pENTR1A (Gateway, Invitrogen) to prepare pENTR-SGLT2. Retrovirus vector pLPCX (Clontech) into which Gateway Vector Conversion System Cassette A (Invitrogen) was introduced was used as the destination plasmid to prepare SGLT2 expressing retrovirus vector pLPCX-SGLT2.
# 2) Establishment of Human SGLT2 Expressing Cell
# The retrovirus pLPCX-SGLT2 obtained in 1) was transfected into integrin αvβ3 expressing HEK-293 cells, the cells were treated with antibiotic G418 (brand name, Geneticin: Invitrogen) and puromycin (Clontech) to obtain HEK-SGLT2 cells stably expressing the target vector having resistance. The stably expressing cells were cultured and maintained in DMEM medium containing […] G418, […] puromycin, 3 mM KGT-1075, and 10% FBS.
# 3) Determination of SGLT2 Inhibiting Activity
# HEK-SGLT2 cells were suspended at a density of 10^6 cells/mL in DMEM medium containing 250 mg/mil G418, 1 mg/ml puromycin, and 10% FBS, and 100 μL was seeded in each well of a type 1 collagen-coated 96-well culture plate (Corning). On the following day, the medium was replaced with a sugar uptake buffer (10 mM HEPES [pH 7.5], 5 mM Tris-HCl [pH 7.5], 140 mM NaCl, 2 mM KCl, 1 mM CaCl2, 1 mM MgCl2), and the cells were cultured with 1 mM [^14C]-α-methyl-D-glucopyranoside (0.1 mCi) and a test compound at 37° C. for 30 min, and then washed 3 times with a washing buffer (10 mM HEPES (pH 7.5), 5 mM Tris-HCl (pH 7.5), 140 mM choline chloride, 2 mM KCl, 1 mM CaCl2, 1 mM MgCl2). 100 μL of liquid scintillation cocktail (brand name, Supermix: Perkin-Elmer) was added to each well of the 96-well plate and stirred for 10 min, and then radioactivity was determined with micro β (Perkin-Elmer), a type of liquid scintillation counter. The value obtained by deducting the radioactivity in the presence of an excess amount of an SGLT2 inhibiting compound as the background from each measured value was taken as the sugar uptake activity, the inhibition rate (%) was calculated from the control sugar uptake activity obtained without using a test compound and the sugar uptake activity obtained using a test compound having a predetermined concentration, and the concentrations of the test compound at which the sugar uptake activity was inhibited by 50% were assessed.
row,IC50 [nM],Compound
1,10,"COc1ccc(Cc2c(Cl)cc(CO)cc2O[C@@H]2O[C@](C)(CO)[C@@H](O)[C@H](O)[C@H]2O)cc1 [Example 55, 3-Chloro-5-hydroxymethyl-2-(4-methoxybenzyl)phenyl 5-C-methyl-β-D-glucopyranoside]"
2,13,"COc1ccc(Cc2ccc(N)cc2O[C@@H]2O[C@H](CO)[C@@](C)(O)[C@H](O)[C@H]2O)cc1 [Example 64, 5-Amino-2-(4-methoxybenzyl)phenyl 4-C-methyl-β-D-glucopyranoside]"
3,20,"COc1ccc(Cc2ccc(N)cc2O[C@@H]2O[C@H](CO)C[C@H](O)[C@H]2O)cc1 [Example 65, 5-Amino-2-(4-methoxybenzyl)phenyl 4-deoxy-β-D-glucopyranoside]"
4,272,"CCOc1ccc(Cc2ccc(COC(=O)CO)cc2O[C@@H]2O[C@H]([C@@H](C)O)[C@@H](O)[C@H](O)[C@H]2O)cc1 [Example 99, 5-Hydroxyacetyloxymethyl-2-(4-ethoxybenzyl)phenyl 7-deoxy-D-glycero-β-D-gluco-heptopyranoside]"

# More lines, now with the values behind:
row,Compound,IC50 [nM]
1,"COc1ccc(Cc2c(Cl)cc(CO)cc2O[C@@H]2O[C@H](CO)[C@@](C)(O)[C@H](O)[C@H]2O)cc1 [Example 56, 3-Chloro-5-hydroxymethyl-2-(4-methoxybenzyl)phenyl 4-C-methyl-β-D-glucopyranoside]",11
2,"COc1ccc(Cc2c(F)cc(CO)cc2O[C@@H]2O[C@H](CO)C[C@H](O)[C@H]2O)cc1 [Example 85, 3-Fluoro-5-hydroxymethyl-2-(4-methoxybenzyl)phenyl 4-deoxy-β-D-glucopyranoside]",20
3,"COc1ccc(Cc2c(Cl)cc(CO)cc2O[C@@H]2O[C@H](CO)C[C@H](O)[C@H]2O)cc1 [Example 86, 3-Chloro-5-hydroxymethyl-2-(4-methoxybenzyl)phenyl 4-deoxy-β-D-glucopyranoside]",19
